Like-named read-outs stand apart in the source and are kept apart here.
Experiments:
[1] = tested on: A375/TR (trametinib-resistant) cells; experiment: Cell proliferation assay (SRB); type: cell-based, human; settings: for resistance factor (RF): A375/TR versus parental A375
Experimental: (§1) The following human tumor cell lines were obtained from the American Type Culture Collection (Manassas, VA, USA): breast tumor cell lines, MDA-MB-231, MDA-MB-435, MDA-MB-468, BT-474 and MCF7; lung tumor cell lines, A549 and Calu-3; ovarian tumor cell lines, SK-OV-3 and OVCAR3; colon tumor cell lines, SW620 and COLO205; glioma cell line, U-87MG; prostate tumor cell line, PC-3; and melanoma cell line, A375. All cell lines were cultured according to instructions provided by the American Type Culture Collection. The ovarian tumor cell line A2780 was obtained from the National Cancer Institute (Bethesda, MD, USA) and cultured according to the instructions provided. The dabrafenib- and trametinib-resistant A375 cell lines, A375/DR and A375/TR, respectively, were established by culturing parental cells in medium containing gradually increasing concentrations of dabrafenib (0.1–5,000 nM) or trametinib (0.05–50 nM) over the course of 12 months. […] All the cells have been tested and authenticated by Genesky Biotechnologies. Inc. (Shanghai, China) using fluorescent amplified restriction fragment polymorphism (FAFLP) method.
(§2) Tumor cells were seeded in 96-well plates and treated with serial dilutions of drugs alone or as a combination of two drugs. After a 72-h incubation, cell proliferation was evaluated by sulforhodamine B (SRB; Sigma) assay. […] The CI value which defines the interaction between two drugs as synergistic (CI < 0.95), additive (CI = 0.95–1.05) or antagonistic (CI > 1.05), was determined on the basis of the median-effect principle using CalcuSyn software.

[2] = tested on: A375/DR (dabrafenib-resistant) cells; experiment: Cell proliferation assay (SRB); type: cell-based, human; settings: for resistance factor (RF): A375/DR versus parental A375
Experimental: as §1, §2

[3] = tested on: trastuzumab-resistant BT-474/trastuzumab xenografts; experiment: Tumor xenograft growth inhibition; type: in vivo, Balb/cA-nude mice
Experimental: (§3) Female, 5–6-wk-old Balb/cA-nude mice were purchased from Shanghai Laboratory Animal Center, Chinese Academy of Sciences (Shanghai, China). […] Tumor volume was calculated as (length × width^2)/2.

[4] = tested on: A375 cells; experiment: Cell proliferation assay (SRB); type: cell-based; settings: Homo sapiens, A-375, 72 h
Experimental: The following human tumor cell lines were obtained from the American Type Culture Collection (Manassas, VA, USA): breast tumor cell lines, MDA-MB-231, MDA-MB-435, MDA-MB-468, BT-474 and MCF7; lung tumor cell lines, A549 and Calu-3; ovarian tumor cell lines, SK-OV-3 and OVCAR3; colon tumor cell lines, SW620 and COLO205; glioma cell line, U-87MG; prostate tumor cell line, PC-3; and melanoma cell line, A375. All cell lines were cultured according to instructions provided by the American Type Culture Collection. The ovarian tumor cell line A2780 was obtained from the National Cancer Institute (Bethesda, MD, USA) and cultured according to the instructions provided. The dabrafenib- and trametinib-resistant A375 cell lines, A375/DR and A375/TR, respectively, were established by culturing parental cells in medium containing gradually increasing concentrations of dabrafenib (0.1–5,000 nM) or trametinib (0.05–50 nM) over the course of 12 months. […]
as §2

[5] = Pharmacokinetic study in U-87MG tumor-bearing mice; type: in vivo, Balb/cA-nude mice; settings: single oral dose 10 mg/kg; for Cmax: female, Balb/cA-nude, mouse
Experimental: as §3
Pharmacokinetic/pharmacodynamic studies were carried out as described previously. Mice bearing U-87MG tumors received a single oral dose of 10 mg/kg SHR8443 or vehicle, and tumor tissues and blood were collected at different times. Concentrations of SHR8443 in plasma and tissue were determined by HPLC/tandem mass spectrometry. Tumor samples were analyzed by Western blotting. Animal experiments were conducted in accordance with the Institutional Animal Care and Use Committee guidelines of Shanghai Institute of Materia Medica, Chinese Academy of Sciences.

[6] = tested on: PI3K/mTOR signaling (AKT, S6, ERK phosphorylation); experiment: Western blotting of PI3K/mTOR signaling in tumor cell lines; type: cell-based, human
Experimental: (§4) After drug treatment, cells were lysed in sodium dodecyl sulfate (SDS) sample buffer (100 mM Tris-HCl pH 6.8, 2% SDS, 20% glycerol, 1 mM dithiothreitol). Cell lysates containing equal amounts of protein were resolved by SDS-PAGE and transferred to polyvinylidene difluoride membranes. Blots were probed with primary antibodies, and then incubated with the appropriate secondary antibodies (Millipore). Immunoreactive bands were visualized using enhanced chemiluminescence reagents (Millipore).

[7] = tested on: MCF7 and MDA-MB-468 cells; experiment: Apoptosis by annexin V-FITC/PI staining and FACS; type: cell-based, human; settings: 72 h
Experimental: (§5) Cells were harvested and fixed in ice-cold 70% ethanol at −20°C overnight. Fixed cells were then treated with 50 μg/mL of propidium iodide and RNase A at 37°C for 30 min. The cell cycle distribution was measured using a FACScan flow cytometer (BD Biosciences, San Jose, CA, USA) and analyzed with ModFit LT Mac V3.0 software. Apoptosis was measured using a FITC Annexin V Apoptosis Detection Kit (BD Biosciences) according to the manufacturer's instructions. Fluorescence was acquired with an Accuri C6 Plus instrument (BD Biosciences).

[8] = target: mTOR (Homo sapiens, UniProt P42345); experiment: mTOR kinase activity assay (K-LISA mTOR Activity Kit); type: biochemical; settings: means ± SD (n = 3)
Experimental: (§6) PI3K enzyme-linked immunosorbent assays (ELISAs) were performed using the PI3Kinase Activity/Inhibitor Assay Kit (Millipore, Bedford, MA, USA) according to the manufacturer's instructions as described previously. mTOR kinase activity was assayed using the K-LISA mTOR Activity Kit (Calbiochem, Bedford, MA, USA) according to the manufacturer's instructions.

[9] = tested on: MCF7, MDA-MB-468, COLO205, and A549 cell lines; experiment: Cell cycle distribution by flow cytometry; type: cell-based, human; settings: 24 h treatment
Experimental: as §5

[10] = target: PI3Kβ (Homo sapiens, UniProt P42338); experiment: PI3K ELISA (PI3Kinase Activity/Inhibitor Assay Kit); type: biochemical; settings: PI3Kβ (p110β); means ± SD (n = 3)
Experimental: as §6

[11] = target: PI3Kα (Homo sapiens, UniProt P42336); experiment: as above; type: biochemical; settings: PI3Kα (p110α); means ± SD (n = 3)
Experimental: as §6

[12] = target: PI3Kγ (Homo sapiens, UniProt P48736); experiment: as above; type: biochemical; settings: PI3Kγ (p110γ); means ± SD (n = 3)
Experimental: as §6

[13] = target: PI3Kδ (Homo sapiens, UniProt O00329); experiment: as above; type: biochemical; settings: PI3Kδ (p110δ); means ± SD (n = 3)
Experimental: as §6

[14] = tested on: A549 cells; experiment: Autophagy, LC3 immunoblotting; type: cell-based, human; settings: 48 h
Experimental: as §4

[15] = tested on: panel of other protein kinases; experiment: Panel of other protein kinases; type: biochemical; settings: 1000 nM; data not shown
[16] = Tolerability (deaths, body weight) in xenograft-bearing mice; type: in vivo, Balb/cA-nude mice; settings: xenograft-bearing mice during the course of treatment
Experimental: as §3

[17] = tested on: BT-474 xenografts; experiment: Tumor xenograft growth inhibition; type: in vivo, Balb/cA-nude mice
Experimental: as §3

[18] = tested on: PC-3 xenografts; experiment: Tumor xenograft growth inhibition; type: in vivo, Balb/cA-nude mice; settings: 30 mg/kg oral daily, final treatment day
Experimental: as §3

[19] = tested on: KRAS mutant A549 xenografts; experiment: Tumor xenograft growth inhibition; type: in vivo, Balb/cA-nude mice; settings: 15 mg/kg oral daily
Experimental: as §3

[20] = tested on: U-87MG xenografts; experiment: Tumor xenograft growth inhibition; type: in vivo, Balb/cA-nude mice
Experimental: as §3

[21] = tested on: panel of human tumor cell lines; experiment: Cell proliferation assay (SRB), panel of human tumor cell lines; type: cell-based; settings: 72 h
Experimental: as §1, §2

[22] = 30 mg/kg oral daily, final treatment day

Chain of PI3Kγ (P48736 whole entry): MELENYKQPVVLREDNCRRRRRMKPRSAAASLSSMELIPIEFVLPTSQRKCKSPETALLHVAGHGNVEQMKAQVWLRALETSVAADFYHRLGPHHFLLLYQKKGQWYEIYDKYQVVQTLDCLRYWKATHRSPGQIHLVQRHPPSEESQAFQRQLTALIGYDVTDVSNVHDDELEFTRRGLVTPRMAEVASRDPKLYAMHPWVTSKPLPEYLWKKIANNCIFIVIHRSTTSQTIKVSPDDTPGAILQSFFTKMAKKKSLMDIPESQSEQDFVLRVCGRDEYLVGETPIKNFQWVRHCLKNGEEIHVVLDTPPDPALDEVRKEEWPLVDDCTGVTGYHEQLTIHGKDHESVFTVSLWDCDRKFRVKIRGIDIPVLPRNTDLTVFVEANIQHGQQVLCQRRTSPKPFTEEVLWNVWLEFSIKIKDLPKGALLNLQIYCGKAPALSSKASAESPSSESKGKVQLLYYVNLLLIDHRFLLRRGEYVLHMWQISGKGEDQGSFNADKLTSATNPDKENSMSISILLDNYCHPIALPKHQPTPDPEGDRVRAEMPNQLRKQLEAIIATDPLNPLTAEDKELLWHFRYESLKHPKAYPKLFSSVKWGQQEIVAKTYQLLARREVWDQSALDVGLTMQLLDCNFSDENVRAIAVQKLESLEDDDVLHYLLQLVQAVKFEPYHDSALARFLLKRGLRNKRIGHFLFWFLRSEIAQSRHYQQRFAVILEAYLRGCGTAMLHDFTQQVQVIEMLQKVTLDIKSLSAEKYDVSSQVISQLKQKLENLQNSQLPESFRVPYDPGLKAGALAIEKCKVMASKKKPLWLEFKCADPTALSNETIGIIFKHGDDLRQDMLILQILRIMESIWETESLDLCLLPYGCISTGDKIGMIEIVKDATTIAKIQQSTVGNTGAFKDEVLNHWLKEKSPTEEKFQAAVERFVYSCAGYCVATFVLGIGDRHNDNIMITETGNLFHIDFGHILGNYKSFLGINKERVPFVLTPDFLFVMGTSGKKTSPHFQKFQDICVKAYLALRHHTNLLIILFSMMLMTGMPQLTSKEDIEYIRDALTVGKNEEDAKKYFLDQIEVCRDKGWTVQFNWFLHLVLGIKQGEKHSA
Chain of PI3Kα (P42336 whole entry): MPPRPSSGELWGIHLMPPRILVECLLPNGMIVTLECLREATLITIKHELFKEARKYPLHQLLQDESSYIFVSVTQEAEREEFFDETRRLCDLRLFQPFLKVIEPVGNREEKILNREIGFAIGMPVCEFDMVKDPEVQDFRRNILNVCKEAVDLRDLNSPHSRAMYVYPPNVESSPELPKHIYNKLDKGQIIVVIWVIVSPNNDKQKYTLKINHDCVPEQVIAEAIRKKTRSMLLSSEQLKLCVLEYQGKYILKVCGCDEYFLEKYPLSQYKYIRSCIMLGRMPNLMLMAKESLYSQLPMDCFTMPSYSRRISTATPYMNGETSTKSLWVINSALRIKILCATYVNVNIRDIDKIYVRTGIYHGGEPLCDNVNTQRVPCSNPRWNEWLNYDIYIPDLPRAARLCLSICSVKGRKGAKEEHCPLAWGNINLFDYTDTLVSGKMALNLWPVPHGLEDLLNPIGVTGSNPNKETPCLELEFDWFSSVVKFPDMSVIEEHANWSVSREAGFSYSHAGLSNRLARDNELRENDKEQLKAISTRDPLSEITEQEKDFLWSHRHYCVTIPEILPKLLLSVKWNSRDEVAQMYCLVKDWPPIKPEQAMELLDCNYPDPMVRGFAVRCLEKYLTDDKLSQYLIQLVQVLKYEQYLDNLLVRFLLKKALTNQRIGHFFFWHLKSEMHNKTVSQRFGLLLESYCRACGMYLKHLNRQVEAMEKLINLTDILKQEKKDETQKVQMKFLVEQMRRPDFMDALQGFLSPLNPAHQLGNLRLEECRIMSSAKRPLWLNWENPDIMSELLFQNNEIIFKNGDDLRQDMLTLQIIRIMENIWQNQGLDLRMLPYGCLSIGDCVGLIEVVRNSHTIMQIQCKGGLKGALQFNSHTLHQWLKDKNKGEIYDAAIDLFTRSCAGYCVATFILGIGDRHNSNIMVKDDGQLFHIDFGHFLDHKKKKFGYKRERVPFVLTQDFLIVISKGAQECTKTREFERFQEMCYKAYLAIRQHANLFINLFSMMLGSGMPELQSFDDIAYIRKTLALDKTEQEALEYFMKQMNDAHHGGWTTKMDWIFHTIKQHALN
Chain of PI3Kα (P27986 whole entry partner): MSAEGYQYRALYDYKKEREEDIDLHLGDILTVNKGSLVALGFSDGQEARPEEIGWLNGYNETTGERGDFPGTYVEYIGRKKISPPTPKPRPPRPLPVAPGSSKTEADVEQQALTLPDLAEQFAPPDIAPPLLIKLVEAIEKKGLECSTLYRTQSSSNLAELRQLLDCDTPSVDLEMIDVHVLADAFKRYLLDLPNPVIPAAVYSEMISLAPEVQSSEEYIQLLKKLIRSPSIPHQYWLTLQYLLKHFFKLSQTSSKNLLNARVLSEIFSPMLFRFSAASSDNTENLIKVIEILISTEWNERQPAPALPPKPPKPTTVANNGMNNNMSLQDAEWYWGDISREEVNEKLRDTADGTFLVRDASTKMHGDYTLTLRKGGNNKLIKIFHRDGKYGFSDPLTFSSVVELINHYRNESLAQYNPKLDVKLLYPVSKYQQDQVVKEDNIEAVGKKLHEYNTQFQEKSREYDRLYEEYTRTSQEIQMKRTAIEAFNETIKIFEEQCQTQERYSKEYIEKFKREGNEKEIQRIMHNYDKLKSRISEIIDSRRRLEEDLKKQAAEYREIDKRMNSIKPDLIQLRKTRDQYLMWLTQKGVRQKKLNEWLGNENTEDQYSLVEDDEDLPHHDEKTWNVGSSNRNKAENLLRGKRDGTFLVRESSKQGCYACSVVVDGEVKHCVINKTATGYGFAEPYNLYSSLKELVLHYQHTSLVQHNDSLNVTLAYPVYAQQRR
Chain of PI3Kδ (O00329 whole entry): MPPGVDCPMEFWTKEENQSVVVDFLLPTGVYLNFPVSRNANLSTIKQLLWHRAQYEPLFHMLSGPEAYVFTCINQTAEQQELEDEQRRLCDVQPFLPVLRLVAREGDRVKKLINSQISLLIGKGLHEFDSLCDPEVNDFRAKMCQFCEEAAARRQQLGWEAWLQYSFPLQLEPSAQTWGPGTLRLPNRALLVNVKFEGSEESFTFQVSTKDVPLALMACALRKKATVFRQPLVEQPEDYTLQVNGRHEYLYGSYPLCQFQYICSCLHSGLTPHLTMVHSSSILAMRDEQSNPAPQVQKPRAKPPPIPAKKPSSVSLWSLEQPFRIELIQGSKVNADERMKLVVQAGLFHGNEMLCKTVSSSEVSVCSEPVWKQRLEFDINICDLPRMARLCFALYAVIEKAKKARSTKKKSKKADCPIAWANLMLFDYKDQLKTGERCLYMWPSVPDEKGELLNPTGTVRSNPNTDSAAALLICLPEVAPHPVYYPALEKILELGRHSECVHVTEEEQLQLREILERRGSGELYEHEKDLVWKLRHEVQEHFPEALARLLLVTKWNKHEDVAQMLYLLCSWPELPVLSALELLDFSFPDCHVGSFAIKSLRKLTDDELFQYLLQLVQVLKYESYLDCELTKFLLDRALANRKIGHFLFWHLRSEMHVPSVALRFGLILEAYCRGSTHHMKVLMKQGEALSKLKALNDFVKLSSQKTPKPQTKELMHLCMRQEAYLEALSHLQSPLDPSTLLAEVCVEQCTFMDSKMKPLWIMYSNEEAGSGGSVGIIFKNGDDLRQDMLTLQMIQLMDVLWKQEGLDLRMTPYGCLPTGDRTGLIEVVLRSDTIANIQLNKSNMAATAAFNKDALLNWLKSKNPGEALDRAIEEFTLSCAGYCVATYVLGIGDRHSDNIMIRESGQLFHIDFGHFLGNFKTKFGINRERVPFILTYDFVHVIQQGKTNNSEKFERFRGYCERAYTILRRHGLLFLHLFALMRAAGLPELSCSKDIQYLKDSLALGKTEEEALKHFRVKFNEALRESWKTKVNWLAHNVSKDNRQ
Chain of PI3Kδ (P27986 whole entry partner): as the sequence (P27986 whole entry partner) above
Chain of PI3Kβ (P42338 whole entry): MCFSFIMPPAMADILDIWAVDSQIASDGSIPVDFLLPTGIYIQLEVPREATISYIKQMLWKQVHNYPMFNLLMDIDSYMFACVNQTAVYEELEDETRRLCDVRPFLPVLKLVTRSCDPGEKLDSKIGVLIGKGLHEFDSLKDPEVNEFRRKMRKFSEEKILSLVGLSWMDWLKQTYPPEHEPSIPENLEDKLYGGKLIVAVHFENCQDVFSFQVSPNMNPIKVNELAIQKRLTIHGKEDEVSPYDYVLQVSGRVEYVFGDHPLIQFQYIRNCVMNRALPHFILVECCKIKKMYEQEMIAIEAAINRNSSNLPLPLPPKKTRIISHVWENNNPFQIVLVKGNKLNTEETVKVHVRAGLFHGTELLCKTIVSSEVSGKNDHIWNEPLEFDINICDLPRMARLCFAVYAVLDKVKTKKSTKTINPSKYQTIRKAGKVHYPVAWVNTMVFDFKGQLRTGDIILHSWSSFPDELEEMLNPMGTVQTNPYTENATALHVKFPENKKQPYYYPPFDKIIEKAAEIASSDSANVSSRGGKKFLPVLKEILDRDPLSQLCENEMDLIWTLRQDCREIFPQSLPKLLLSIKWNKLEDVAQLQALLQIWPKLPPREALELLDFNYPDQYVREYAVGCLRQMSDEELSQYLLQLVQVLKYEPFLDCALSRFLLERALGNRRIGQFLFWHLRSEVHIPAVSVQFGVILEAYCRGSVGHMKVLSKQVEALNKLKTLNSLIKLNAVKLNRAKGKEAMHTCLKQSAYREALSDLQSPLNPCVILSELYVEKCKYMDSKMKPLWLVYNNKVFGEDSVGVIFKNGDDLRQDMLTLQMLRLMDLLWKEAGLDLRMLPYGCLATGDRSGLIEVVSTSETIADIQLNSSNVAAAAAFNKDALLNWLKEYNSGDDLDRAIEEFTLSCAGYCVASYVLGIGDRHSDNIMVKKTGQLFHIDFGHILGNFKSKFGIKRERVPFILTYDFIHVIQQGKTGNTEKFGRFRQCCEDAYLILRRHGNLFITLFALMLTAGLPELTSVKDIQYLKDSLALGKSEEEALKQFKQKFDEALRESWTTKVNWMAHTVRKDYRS
Chain of PI3Kβ (P27986 whole entry partner): as the sequence (P27986 whole entry partner) above

## CC(=O)Nc1cccc(-n2c(=O)n(C3CC3)c(=O)c3c(Nc4ccc(I)cc4F)n(C)c(=O)c(C)c32)c1 [trametinib]
[1]
  resistance factor (RF): 39.8
[2]
  resistance factor (RF): 45.1

## Cn1c(=O)n(-c2ccc(C(C)(C)C#N)cc2)c2c3cc(-c4cnc5ccccc5c4)ccc3ncc21 [BEZ235, reference compound]
[3]; 60 mg/kg oral daily
  tumor growth inhibition (TGI): 39%

## CC(C)(C)c1nc(-c2cccc(NS(=O)(=O)c3c(F)cccc3F)c2F)c(-c2ccnc(N)n2)s1 [dabrafenib]
[1]
  resistance factor (RF): 61.0
[2]
  resistance factor (RF): 839.2

## CNC(=O)Nc1ccc(-c2ccc3ncc4c(c3c2)n(-c2cccc(C(F)(F)F)c2)c(=O)n4C)cn1 [SHR8443, 1-methyl-3-(5-(3-methyl-2-oxo-1-(3-(trifluoromethyl)phenyl)-2,3-dihydro-1H–imidazo [4,5-c]quinolin-8-yl)pyridin-2-yl) urea]
[1]; Homo sapiens, A-375, A375/TR cells, 72 h, SRB assay
  IC50: 4.9 nM
[2]; Homo sapiens, A-375, A375/DR cells, 72 h, SRB assay
  IC50: 3.4 nM
[4]
  IC50: 4.1 nM
[5]; plasma, read-out: Cmax in plasma
  Cmax: 735 ng/mL
[5]; tumor tissue, read-out: Cmax in tumor tissue
  Cmax: 181 ng/g
[5]
  time of Cmax (plasma and tumor tissue): 8 h
[6]; COLO205 (BRAF mutant), A549 and SW620 (KRAS mutant) cells, 3 h
  phosphorylation of AKT and S6: significantly inhibited
[6]; COLO205, A549, SW620 cells
  level of phosphorylated ERK (pERK): No change
[6]; MCF7, MDA-MB-468, BT-474 breast cancer cells, 3 h
  AKT and S6 phosphorylation: inhibited
[6]; MDA-MB-468 cells, 100 nM for 2 h then drug-free medium
  reversibility of inhibitory activity after removal from medium: reversible
[6]; U-87MG cells, 100 nM
  duration of inhibition of AKT, S6K and S6 phosphorylation: at least 48 h
[7]
  necrotic/apoptotic cell death: concentration-dependent increase
[8]
  IC50: 7.8 ± 1.1 nM
[9]
  cell cycle effect: concentration-dependent G1-phase cell-cycle arrest
[10]
  IC50: 15.8 ± 3.8 nM
[11]
  IC50: 0.1 nM
[12]
  IC50: 0.2 ± 0.2 nM
[13]
  IC50: 0.7 ± 0.2 nM
[14]
  LC3-II production (autophagy): increased the production of LC3-II in a concentration-dependent manner
[15]
  inhibitory activity against a panel of other protein kinases: little inhibitory activity
[16]
  tolerability (drug-related deaths, body weight loss): well tolerated
[17]; 30 mg/kg
  tumor regression: one of six tumors
[17]; [22]
  tumor growth inhibition (TGI): 87%
[3]; 30 mg/kg oral daily
  tumor growth inhibition (TGI): 79%
[18]
  tumor growth inhibition (TGI): 75%
[19]
  tumor growth inhibition (TGI): 86%
[20]; 30 mg/kg
  tumor regression: one of six tumors
[20]; [22]
  tumor growth inhibition (TGI): 95%
[21]; read-out: IC50 values, proliferation, range over all tested tumor cells
  IC50: 2.9 to 13.9 nM
[21]; read-out: average (mean) IC50, proliferation, all tested tumor cells
  IC50: 7.5 nM
[21]; read-out: mean IC50 in KRAS/BRAF mutant tumor cells
  IC50: 7.3 nM

— paper PMC5746119, “Pharmacologic characterization of SHR8443, a novel dual inhibitor of phosphatidylinositol 3-kinase and mammalian target of rapamycin” (Oncotarget, 2017)
